Data as given in US8592576B2, “Unsymmetrical pyrrolobenzodiazepine-dimers for treatment of proliferative diseases” (Spirogen Sarl, priority 2008, dated 2013).

Tests used:
[1] = system: K562 human chronic myeloid leukaemia cells; test: K562 assay, in vitro cytotoxicity (MTT); type: cell-based; settings: drug incubation 1 hour or 96 hours (not specified which), dose reducing final optical density to 50% of control
Protocol: (§1) Determination of In Vitro Cytotoxicity
K562 human chronic myeloid leukaemia cells were maintained in RPM1 1640 medium supplemented with 10% fetal calf serum and 2 mM glutamine at 37° C. in a humidified atmosphere containing 5% CO2 and were incubated with a specified dose of drug for 1 hour or 96 hours at 37° C. in the dark. The incubation was terminated by centrifugation (5 min, 300 g) and the cells were washed once with drug-free medium. Following the appropriate drug treatment, the cells were transferred to 96-well microtiter plates (10^4 cells per well, 8 wells per sample). Plates were then kept in the dark at 37° C. in a humidified atmosphere containing 5% CO2. The assay is based on the ability of viable cells to reduce a yellow soluble tetrazolium salt, 3-(4,5-dimethylthiazol-2-yl)-2,5-diphenyl-2H-tetrazolium bromide (MTT, Aldrich-Sigma), to an insoluble purple formazan precipitate. Following incubation of the plates for 4 days (to allow control cells to increase in number by approximately 10 fold), 20 μL of MTT solution (5 mg/mL in phosphate-buffered saline) was added to each well and the plates further incubated for 5 h. […] The optical density was then read at a wavelength of 550 nm on a Titertek Multiscan ELISA plate reader, and a dose-response curve was constructed. […]

A2780 parental cell line = test: A2780 assay, in vitro cytotoxicity (MTT); type: cell-based; settings: Homo sapiens, A2780 cells, 72 hours incubation, absorbance 540 nm
Protocol: as §1
A2780 parental cell line was grown in Dulbecco's Modified Eagles' Media (DMEM) containing ˜10% Foetal Calf Serum (FCS) and ˜1% 200 mM L-Glutamine solution and grown in Corning Cellbind 75 cm^2 flasks.
190 μl cell suspension was added (at 1×10^4) to each well of columns 2 to 11 of a 96 well plate (Nunc 96F flat bottom TC plate). 190 μl of media was added to each well of columns 1 and 12. The media was Dulbecco's Modified Eagles' Media (DMEM) (which included ˜10% Foetal Calf Serum (FCS) and ˜1% 200 mM L-Glutamine solution).
Plates were incubated overnight at 37° C. before addition of drug if cells were adherent. 200 μM of the test compound solutions (in 100% DMSO) were serially diluted across a 96 well plate. Each resulting point was then further diluted 1/10 into sterile distilled water (SDW).
To the cell negative blanks and compound negative control wells, 10% DMSO was added at 5% v/v. Assay plates were incubated for the following durations at 37° C. in 5% CO2 in a humidified incubator for 72 hours. Following incubation, MTT solution to a final concentration of […] was added to each well. Plates were then incubated for a further 4 hours at 37° C. in 5% CO2 in a humidified incubator. […]
Plates were read at 540 nm absorbance using an Envision plate reader. Data was analysed using Microsoft Excel and GraphPad Prism and IC50 values obtained.

Structure (SMILES) | IC50 [1] | IC50 (A2780 parental cell line)
COc1ccc(C2=CN3C(=O)c4cc(OC)c(OCCCCCOc5cc6c(cc5OC)C(=O)N5C=C(c7ccc(N)cc7)C[C@H]5C=N6)cc4N=C[C@@H]3C2)cc1 [Compound 13, (S)-2-(4-aminophenyl)-7-methoxy-8-(5-((S)-7-methoxy-2-(4-methoxyphenyl)-5-oxo-5,11a-dihydro-1H-pyrrolo[2,1-c][1,4]benzodiazepine-8-yloxy)pentyloxy)-1H-pyrrolo[2,1-c][1,4]benzodiazepine-5(11aH)-one] | 30 µM | –
COc1ccc(C2=CN3C(=O)c4cc(OC)c(OCCCOc5cc6c(cc5OC)C(=O)N5C=C(c7ccc(N)cc7)C[C@H]5C=N6)cc4N=C[C@@H]3C2)cc1 [Compound 11, (S)-2-(4-aminophenyl)-7-methoxy-8-(3-((S)-7-methoxy-2-(4-methoxyphenyl)-5-oxo-5,11a-dihydro-1H-pyrrolo[2,1-c][1,4]benzodiazepine-8-yloxy)propoxy)-1H-pyrrolo[2,1-c][1,4]benzodiazepine-5(11aH)-one] | – | 11.7 µM
